In general, EC50 refers to the concentration needed to bring the measured effect to its halfway point. The Emax is the maximal effect, on the per cent scale that the assay sets.

Some results are limits rather than exact numbers.

The values below come from US8299115B2, “Pyrrole-2-carboxamide derivatives as glucokinase activators, their process and pharmaceutical application” (priority 2007, dated 2012).

Data set [1] concerns the target T1, human recombinant glucokinase (Homo sapiens, UniProt P35557).
T1 sequence (P35557 1-465): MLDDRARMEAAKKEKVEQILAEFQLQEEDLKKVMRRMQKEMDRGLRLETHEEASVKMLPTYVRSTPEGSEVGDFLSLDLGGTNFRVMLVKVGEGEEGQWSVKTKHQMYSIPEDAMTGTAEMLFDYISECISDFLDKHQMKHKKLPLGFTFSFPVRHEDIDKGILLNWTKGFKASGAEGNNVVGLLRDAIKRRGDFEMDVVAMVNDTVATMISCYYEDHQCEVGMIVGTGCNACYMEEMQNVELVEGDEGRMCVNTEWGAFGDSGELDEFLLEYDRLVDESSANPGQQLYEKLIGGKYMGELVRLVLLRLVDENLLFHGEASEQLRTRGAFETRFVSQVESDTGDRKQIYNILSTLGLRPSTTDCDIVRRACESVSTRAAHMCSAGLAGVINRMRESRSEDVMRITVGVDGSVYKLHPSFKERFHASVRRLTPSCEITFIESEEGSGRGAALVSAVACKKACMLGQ
Nature of the data set: Glucokinase activation, coupled enzymatic assay (G6PD/NADH) at 5 mM glucose. It is filed as biochemical. The settings on record: read-out: EC50 for GK activation at 5 mM glucose. From the text:
(§1) Glucokinase (GK) activity, in vitro, has been measured using a coupled enzymatic assay (Ref: Hariharan et al (1997) Diabetes 46: 11-16). GK catalyzes the first step, the conversion of glucose to glucose-6-phosphate (G6P) in the presence of ATP. G6P in turn is converted by glucose-6-phosphate dehydrogenase (G6PD) to 6-phosphogluconate, a process that requires NAD, resulting in NADH formation. Since the GK-catalyzed step is the rate-limiting step of this coupled enzymatic process, the rate of accumulation of 6-phosphogluconate and NADH is directly proportional to the rate of glucose phosphorylation by GK. The rate of the GK-catalyzed reaction can therefore be measured by monitoring the increase in NADH absorbance at 340 nm.
(§2) The assay is carried out according to the protocol outlined in Hariharan et al (1997), Diabetes 46: 11-16. Briefly, the test compounds are incubated in a reaction mix containing 25 mM HEPES (pH 7.2), 10 mM MgCl2, 100 mM KCl, 5 mM ATP, 2 mM DTT, 0.5 mM NAD, 1 U/ml Leuconostoc mesenteroides G6PD, 0.3 U/ml of purified human recombinant GK, and different concentrations of glucose. Enzymatic activity is calculated from the initial reaction velocity, measured from the change in NADH absorbance as a function of time.
Compounds described in formula (I), in concentration ranges from 1.0 nM to 500 μM, are tested in the purified human recombinant glucokinase assay described above.
A compound is considered to be a glucokinase activator if it, in its testable range of concentrations, yields a higher rate of glucose phosphorylation than in its absence at a particular glucose concentration, for example at 5 mM glucose.

The target in data set [2] is T1, human recombinant glucokinase. Nature of the data set: Characterization of partial glucokinase activators: dose-dependent effect on S0.5 of glucokinase for glucose (% ΔS0.5). It is filed as biochemical. The settings on record: for Emax: % change of S0.5 at saturating compound concentration, read-out: % Emax (with respect to % ΔS0.5); for EC50: sigmoidal fit of % ΔS0.5 vs log compound concentration, read-out: EC50 (with respect to % ΔS0.5).
Source text: as §1, §2
Compounds of interest from the general formula (I) are tested in the in vitro GK enzymatic assay to monitor dose-dependent effect on glucokinase activation (in kinetic mode), as described above, at various glucose concentrations. The maximum efficacy (Emax) and potency (EC50) for the assessment of partial glucokinase activation have been defined in our co-pending application 409/CHE/2007. The same definitions have also been used here. The S0.5 of glucokinase for glucose at different concentration of each compound of interest is calculated from the following modified version of the Michaelis-Menten equation, V=Vmax[S]^n/(S0.5^n+[S]^n), where [S] is the glucose concentration and n is the Hill coefficient (taken as 1.7 to account for the sigmoidal kinetics of glucokinase with respect to glucose). The S0.5 is plotted against the log of the compound concentration. The change in the S0.5 of glucokinase (ΔS0.5) for glucose is calculated by subtracting the S0.5 at each concentration of the compound from the S0.5 in the vehicle control. The ΔS0.5 is then normalized to a percent scale, where the S0.5 in the vehicle control is set to 0% and 0 mM glucose is set to 100%. The % ΔS0.5 is then plotted against the log of the compound concentration. The EC50 of % change in S0.5 is obtained from the sigmoidal fit of the data.

The conditions of data set [3]: cited from earlier work.

Regarding `CS(=O)(=O)c1ccc(Cc2cc(C(=O)Nc3nc(CC(=O)O)c(Cl)s3)n(Cc3ccc(F)c(F)c3)c2)cc1` [Example E23, (5-Chloro-2-{[1-(3,4-difluoro-benzyl)-4-(4-methanesulfonyl-benzyl)-1H-pyrrole-2-carbonyl]-amino}-thiazol-4-yl)-acetic acid], the EC50 in data set [1] was found to be 300 nM. As to `CCOC(=O)Cc1nc(NC(=O)c2cc(CC(C)C)cn2Cc2ccc(F)c(F)c2)sc1Cl` [Example A116, (5-Chloro-2-{[1-(3,4-difluoro-benzyl)-4-isobutyl-1H-pyrrole-2-carbonyl]-amino}-thiazol-4-yl)-acetic acid ethyl ester], in data set [2], the Emax came to 70% and the EC50 was 300 nM. Turning to `O=C(Nc1ncc(F)s1)[C@H](CC1CCOCC1)c1ccc(S(=O)(=O)C2CC2)cc1` [PSN-GK1], the hypoglycemic potential result in data set [3] (at higher dose, Fyfe 2007) is recorded as “hypoglycemic potential”.

As for `CC(C)C(O)c1cc(C(=O)Nc2ncc(F)s2)n(Cc2ccc(S(C)(=O)=O)cc2)c1` (stereo not shown) [Example C8, 4-(1-Hydroxy-2-methyl-propyl)-1-(4-methanesulfonyl-benzyl)-1H-pyrrole-2-carboxylic acid (5-fluoro-thiazol-2-yl)-amide], the EC50 in data set [1] worked out at 430 nM. Consider `CC(C)Cc1cc(C(=O)Nc2ncc(Cl)s2)n(Cc2ccc(F)c(F)c2)c1` [Example A40, 1-(3,4-Difluoro-benzyl)-4-isobutyl-1H-pyrrole-2-carboxylic acid (5-chloro-thiazol-2-yl)-amide], for which, in data set [2], the Emax was 65% and the EC50 worked out at 200 nM. For Ro-28-1675 [reference compound], the “hypoglycemia in animal efficacy models” value in data set [3] (Kamata et al 2004) is “cause hypoglycemia”. Also, in data set [2] (drop from approximate 8 mM glucose, enzyme-based in vitro assay), the “S0.5 of glucokinase for glucose in presence of activator” value is listed as at most 1.0 mM. With `CC(C)Cc1cc(C(=O)Nc2ncc(Cl)s2)n(Cc2ccc(F)c(C(F)(F)F)c2)c1` [Example A31, 1-(4-Fluoro-3-trifluoromethyl-benzyl)-4-isobutyl-1H-pyrrole-2-carboxylic acid (5-chloro-thiazol-2-yl)-amide], in data set [2], the maximal response (Emax) was 40% and the EC50 was determined as 220 nM. In the case of `CC(C)C(O)c1cc(C(=O)Nc2ncc(Cl)s2)n(Cc2ccc(F)c(F)c2)c1` (stereo not shown) [Example C2, 1-(3,4-Difluoro-benzyl)-4-(1-hydroxy-2-methyl-propyl)-1H-pyrrole-2-carboxylic acid (5-chloro-thiazol-2-yl)-amide], the EC50 in data set [1] was found to be 630 nM. Still for that read-out and setting: the value for `CC(C)C(O)c1cc(C(=O)Nc2nccs2)n(Cc2ccc(S(C)(=O)=O)cc2)c1` (stereo not shown) [Example C6, 4-(1-Hydroxy-2-methyl-propyl)-1-(4-methanesulfonyl-benzyl)-1H-pyrrole-2-carboxylic acid thiazol-2-ylamide] was 600 nM.
